What follows are molecules tested on Male SHRs (assay: Antihypertensive effect: mean blood pressure in SHRs after oral administration). Conditions: SHR, dose 3 mg/kg, during 24 hours after administration.
Assay type: in vivo, rat
Protocol: Male SHRs (28-40 weeks old, Japan SLC, Inc., Japan) were anesthetized with sodium pentobarbital (50 mg/kg, i.p.). The left femoral artery was cannulated with a polyethylene catheter filled with saline comprising heparin (200 U/mL). The catheter was exteriorized at the back of the neck and each SHR was individually housed in a cage and left two or four days to recover. The mean blood pressure (MBP) was obtained from the systemic blood pressure which was monitored from the femoral artery using a pressure transducer connected to a polygraph system (Nihon Kohden Corporation). The heart rate was measured from the blood pressure pulse intervals. The rats which had MBP over 150 mmHg were used for the experiment. When the blood pressure had stabilized, vehicle (0.5 w/v % methylcellulose) or compounds were orally administered. All compounds were suspended in 0.5 w/v % methylcellulose and orally administered at a volume of 2 mL/kg. The MBP was measured during 24 hours after the administration.

Structure (SMILES) | Maximum MBP reduction (mmHg)
CCCc1c(Cc2ccc(-c3ccccc3C3=NOC(O)N3)cc2F)c(=O)n(C2CCC(OC(C)C(C)(C)O)CC2)c2ncnn12.[K+] (single isomer, unassigned; (-)) [Example 459, (−)-6-{[3-fluoro-2′-(5-oxo-4,5-dihydro-1,2,4-oxadiazol-3-yl)biphenyl-4-yl]methyl}-4-[trans-4-(2-hydroxy-1,2-dimethylpropoxy)cyclohexyl]-7-propyl[1,2,4]triazolo[1,5-a]pyrimidin-5(4H)-one potassium salt (Retention Time: Long)] | 64

These molecules were tested against human PPARγ (Homo sapiens (Human), UniProt P37231) (assay: PPARγ agonistic activity: luciferase reporter assay in PPARγ:RXRα:4ERPP/CHO-K1 cells). Conditions: CHO-K1, test compound 10^−6 M; control compound X (1 μM) taken as 100%.
Assay type: cell-based
Text: Evaluation of PPARγ Agonistic Activity
(5) Introduction of Human PPARγ- and RXRα-Expression Plasmid and Reporter Plasmid into Cho-K1 Cell as Well as Establishment of Expressed Cell
A CHO-K1 cell cultured in a 150 cm^2 cell culture flask [manufactured by Corning Costar Corporation, USA] comprising Ham's F12 medium [manufactured by INVITROGEN, USA] supplemented with 10% fetal bovine serum [manufactured by INVITROGEN, USA] was taken off by treating with 0.5 g/L trypsin-0.2 g/L EDTA (ethylenediamine tetraacetate) [manufactured by Life Technologies, Inc., USA], and then the cell was washed with PBS (Phosphate-buffered saline) [manufactured by INVITROGEN, USA], centrifuged (1000 rpm, 5 minutes) and suspended in PBS. Subsequently, DNA was introduced into the cell under the conditions shown below using GENE PULSER [manufactured by Bio-Rad Laboratories, USA].
Namely, to a cuvette having a 0.4 cm gap were added 8×10^6 cells and 10 μg of plasmid pVgRXR2-hPPARγ obtained in the above-mentioned (4) and 10 μg of reporter plasmid pGL3-4ERPP-TK neo obtained in the above-mentioned (3), which was subjected to electroporation at the voltage of 0.25 kV under the capacitance of 960 μF. Subsequently, the cell was transferred into a F12 medium comprising 10% fetal bovine serum and cultured for 24 hours, and then the cell was taken off again and centrifuged. Then, the pellet was suspended in Ham's F12 medium comprising 10% fetal bovine serum supplemented with 500 μg/ml of Geneticin [manufactured by INVITROGEN, USA] and 250 μg/ml of Zeocin [manufactured by INVITROGEN, USA]. The obtained suspension was diluted to the density of 10^4 cells/ml and inoculated in a 96-well plate [manufactured by Corning Costar Corporation, USA], which was cultured in a CO2 gas incubator at 37° C., whereby obtaining a Geneticin- and Zeocin-resistant transformant.
Subsequently, after the transformed cell line thus obtained was cultured in a 24-well plate [manufactured by Corning Costar Corporation, USA], a cell line in which expression of the luciferase was induced, i.e., PPARγ:RXRα:4ERPP/CHO-K1 cell was selected by the addition of 10 μM pioglitazone hydrochloride.
(6) Evaluation of PPARγ Agonistic Activity
PPARγ:RXRα:4ERPP/CHO-K1 cells obtained in the above-mentioned (5) were cultured in F12 medium [manufactured by INVITROGEN, USA] containing 10% fetal bovine serum [manufactured by MOREGATE, Australia], seeded in a 96 well half-area white plate [manufactured by Corning Coster Corporation, USA] at 5×10^3 cells/well, and cultured in a CO2 incubator at 37° C. overnight.
Then, the medium was removed from the 96 well half-area white plate, hamF12 medium containing 0.1% fatty acid-free bovine serum albumin (BSA) (45 μl) and a test compound (5 μl) were added, and the mixture was cultured in the CO2 incubator at 37° C. for 1 day. After removing the medium, Picagene 7.5 [manufactured by Dai Nippon Inki, Japan] (20 μl) diluted 2-fold with HBSS (HANKS' BALANCED SALT SOLUTION) [manufactured by BIO […], USA] was added, and the mixture was stirred. Using 1420 ARVO Multilabel Counter [manufactured by PerkinElmer, USA], luciferase activity was measured.
The percentage (%) was calculated from the luciferase activity of the test compound when the luciferase activity of the control compound (compound X: 5-[3-(4-{[2-(2-furyl)-5-methyl-1,3-oxazol-4-yl]methoxy}-3-methoxyphenyl)propyl]-1,3-oxazolidine-2,4-dione) (1 μM) was taken as 100% and the luciferase activity of the test compound non-administration group was taken as 0%.

human PPARγ, sequence (P37231 29-505): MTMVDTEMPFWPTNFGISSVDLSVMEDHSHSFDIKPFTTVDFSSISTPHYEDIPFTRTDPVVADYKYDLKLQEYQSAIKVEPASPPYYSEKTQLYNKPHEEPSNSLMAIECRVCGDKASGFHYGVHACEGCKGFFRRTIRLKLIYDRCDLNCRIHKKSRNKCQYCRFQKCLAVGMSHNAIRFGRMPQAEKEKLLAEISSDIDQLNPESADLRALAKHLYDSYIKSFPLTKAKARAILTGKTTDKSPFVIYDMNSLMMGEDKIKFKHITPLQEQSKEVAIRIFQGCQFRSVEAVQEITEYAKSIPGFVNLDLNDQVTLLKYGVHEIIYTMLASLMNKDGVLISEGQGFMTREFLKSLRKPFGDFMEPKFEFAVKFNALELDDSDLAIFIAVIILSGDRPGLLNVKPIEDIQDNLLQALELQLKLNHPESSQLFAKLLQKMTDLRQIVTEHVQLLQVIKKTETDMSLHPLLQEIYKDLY
human PPARγ, sequence (P19793 whole entry partner): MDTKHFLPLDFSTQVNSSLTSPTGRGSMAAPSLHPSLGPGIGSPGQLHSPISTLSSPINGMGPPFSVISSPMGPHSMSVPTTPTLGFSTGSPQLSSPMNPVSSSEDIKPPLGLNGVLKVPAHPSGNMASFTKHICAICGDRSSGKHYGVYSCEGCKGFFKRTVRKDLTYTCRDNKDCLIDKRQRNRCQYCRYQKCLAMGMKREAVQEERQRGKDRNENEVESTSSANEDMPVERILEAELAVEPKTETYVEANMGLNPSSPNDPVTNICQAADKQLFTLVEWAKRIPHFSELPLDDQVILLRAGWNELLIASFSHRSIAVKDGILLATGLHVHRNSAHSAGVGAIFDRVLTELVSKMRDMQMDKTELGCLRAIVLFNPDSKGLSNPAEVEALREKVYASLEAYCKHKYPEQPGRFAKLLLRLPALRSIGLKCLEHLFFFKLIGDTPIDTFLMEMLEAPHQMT

Structure (SMILES) | activation at 1 µM [%]
CCCc1c(Cc2ccc(-c3ccccc3-c3noc(=O)[nH]3)cc2F)c(=O)n([C@H]2CC[C@H](OC(C)C(C)(C)O)CC2)c2ncnn12 (single isomer, unassigned; (+)) [Example 247, (+)-6-{[3-fluoro-2′-(5-oxo-4,5-dihydro-1,2,4-oxadiazol-3-yl)biphenyl-4-yl]methyl}-4-[trans-4-(2-hydroxy-1,2-dimethylpropoxy)cyclohexyl]-7-propyl[1,2,4]triazolo[1,5-a]pyrimidin-5(4H)-one] | 17
CCCc1c(Cc2ccc(-c3ccccc3-c3noc(=O)[nH]3)cc2)c(=O)n([C@H]2CC[C@H](OC(C)C(C)(C)O)CC2)c2ncnn12 (single isomer, unassigned) [Example 318, 4-[trans-4-(2-hydroxy-1,2-dimethylpropoxy)cyclohexyl]-6-{[2′-(5-oxo-4,5-dihydro-1,2,4-oxadiazol-3-yl)biphenyl-4-yl]methyl}-7-propyl[1,2,4]triazolo[1,5-a]pyrimidin-5(4H)-one (Retention Time: Short)] | 17

Same assay, conditions: test compound 10^−6 M; control compound X (1 μM) taken as 100%

Structure (SMILES) | PPARγ agonistic activity (activation % (10^−6 M)) [%]
CCCCc1c(Cc2ccc(-c3ccccc3-c3noc(=O)[nH]3)cc2)c(=O)n(C2CCOC(C)C2)c2ncnn12 (stereo not drawn) [Example 160, 7-butyl-4-(2-methyltetrahydro-2H-pyran-4-yl)-6-{[2′-(5-oxo-4,5-dihydro-1,2,4-oxadiazol-3-yl)biphenyl-4-yl]methyl}[1,2,4]triazolo[1,5-a]pyrimidin-5(4H)-one] | 26
CCCc1c(Cc2ccc(-c3ccccc3-c3noc(=O)[nH]3)cc2)c(=O)n(C2CCC(OCC(C)O)CC2)c2ccnn12 (single isomer, unassigned) [Example 441, 4-[trans-4-(2-hydroxypropoxy)cyclohexyl]-6-{[2′-(5-oxo-4,5-dihydro-1,2,4-oxadiazol-3-yl)biphenyl-4-yl]methyl}-7-propylpyrazolo[1,5-a]pyrimidin-5(4H)-one (Optically Active Form, Retention Time: Long)] | 19
CCCc1c(Cc2ccc(-c3ccccc3-c3noc(=O)[nH]3)cc2)c(=O)n([C@H]2CC[C@H](OC(C)C(C)(C)O)CC2)c2ncnn12 (stereo partly drawn) [Example 300, 4-[trans-4-(2-hydroxy-1,2-dimethylpropoxy)cyclohexyl]-6-{[2′-(5-oxo-4,5-dihydro-1,2,4-oxadiazol-3-yl)biphenyl-4-yl]methyl}-7-propyl[1,2,4]triazolo[1,5-a]pyrimidin-5(4H)-one] | 16
CCCc1c(Cc2ccc(-c3ccccc3-c3noc(=O)[nH]3)cc2F)c(=O)n([C@H]2CC[C@H](OC(C)C(C)(C)O)CC2)c2ncnn12 (single isomer, unassigned) [Example 248, 6-{[3-fluoro-2′-(5-oxo-4,5-dihydro-1,2,4-oxadiazol-3-yl)biphenyl-4-yl]methyl}-4-[trans-4-(2-hydroxy-1,2-dimethylpropoxy)cyclohexyl]-7-propyl[1,2,4]triazolo[1,5-a]pyrimidin-5(4H)-one] | 19
CCCCc1c(Cc2ccc(-c3ccccc3-c3noc(=O)[nH]3)cc2)c(=O)n(C2CCOC(C)C2)c2ncnn12 (stereo not drawn) [Example 161, 7-butyl-4-(2-methyltetrahydro-2H-pyran-4-yl)-6-{[2′-(5-oxo-4,5-dihydro-1,2,4-oxadiazol-3-yl)biphenyl-4-yl]methyl}[1,2,4]triazolo[1,5-a]pyrimidin-5(4H)-one] | 47
CCCc1c(Cc2ccc(-c3ccccc3-c3noc(=O)[nH]3)cc2)c(=O)n([C@H]2CC[C@H](OC(C)C(C)(C)O)CC2)c2ncnn12 (single isomer, unassigned) [Example 319, 4-[trans-4-(2-hydroxy-1,2-dimethylpropoxy)cyclohexyl]-6-{[2′-(5-oxo-4,5-dihydro-1,2,4-oxadiazol-3-yl)biphenyl-4-yl]methyl}-7-propyl[1,2,4]triazolo[1,5-a]pyrimidin-5(4H)-one (Retention Time: Long)] | 16

Each molecule was assayed against human AT1 receptor (Homo sapiens (Human), UniProt P30556) (assay: AT1 receptor antagonistic activity: [125I]-angiotensin II binding assay with AT1 membrane). Conditions: 22.5 pM [125I]-angiotensin II, human AT1 receptor-expressing CHO-K1 membrane, 1 hr room temperature.
Protocol: Evaluation of AT1 Receptor Antagonistic Activity
(1) Preparation of Human AT1 Receptor-Expressing CHO-K1 Cellular Membrane Fraction
CHO-K1 cell (RIKEN, Japan) capable of stable expression of human AT1 receptor was cultured, recovered, suspended in homogenize buffer (10 mM NaHCO3 (pH 7.4), 5 mM EDTA, 1× Complete EDTA free) [manufactured by Roche, Switzerland], and homogenized. The homogenate was centrifuged at low-speed (900×g, 10 min, 4° C.), and the supernatant was recovered and ultracentrifuged (90,000×g, 1 hr, 4° C.). The supernatant was discarded, and the pellets were resuspended in suspension buffer (50 mM Tris (pH 7.4), 1 mM EDTA, 1× Complete EDTA free).
(2) Evaluation of AT1 Receptor Antagonistic Activity
(9 μg) in the presence of AT1 membrane and test compound in 100 μL (total reaction volume) of reaction buffer (50 mM Tris (pH 7.4), 10 mM MgCl2 supplemented or not supplemented with 0.3 mg/mL fatty acid-free bovine serum albumin [manufactured by Wako Pure Chemical Industries, Ltd., Japan]). The reaction mixture was incubated in 96 well polypropylene plate for 1 hr at room temperature, and the reaction was quenched by rapid filtration (96 well cell harvester) through a GF/C filter treated with wash buffer (50 mM Tris (pH 7.4)). Subsequently, the filter was washed 5 times with 0.3 mL of ice-cooled wash buffer. […] Total binding was measured in the presence of 1% DMSO and nonspecific binding was measured in the presence of 1 μM Candesartan.

human AT1 receptor, sequence (P30556 whole entry): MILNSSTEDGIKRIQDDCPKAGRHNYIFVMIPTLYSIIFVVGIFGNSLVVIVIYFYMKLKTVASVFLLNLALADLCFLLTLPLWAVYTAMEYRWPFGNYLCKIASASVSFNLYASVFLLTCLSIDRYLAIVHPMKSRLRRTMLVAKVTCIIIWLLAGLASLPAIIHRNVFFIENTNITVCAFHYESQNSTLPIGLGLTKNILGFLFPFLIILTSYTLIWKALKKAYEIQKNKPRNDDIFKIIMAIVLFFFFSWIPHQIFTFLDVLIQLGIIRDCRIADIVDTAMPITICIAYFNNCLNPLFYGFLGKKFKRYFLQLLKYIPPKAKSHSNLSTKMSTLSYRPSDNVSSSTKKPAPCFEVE

Structure (SMILES) | IC50 [nM]
CCCc1c(Cc2ccc(-c3ccccc3-c3noc(=O)[nH]3)cc2)c(=O)n(C2CCC(OCC(C)O)CC2)c2ccnn12 (single isomer, unassigned) [Example 441, 4-[trans-4-(2-hydroxypropoxy)cyclohexyl]-6-{[2′-(5-oxo-4,5-dihydro-1,2,4-oxadiazol-3-yl)biphenyl-4-yl]methyl}-7-propylpyrazolo[1,5-a]pyrimidin-5(4H)-one (Optically Active Form, Retention Time: Long)] | 1.6
CCCc1c(Cc2ccc(-c3ccccc3-c3nc(=O)o[nH]3)cc2)c(=O)n(C2CCC(OCC(C)O)CC2)c2ccnn12 (single isomer, unassigned) [Example 440, 4-[trans-4-(2-hydroxypropoxy)cyclohexyl]-6-{[2′-(5-oxo-4,5-dihydro-1,2,4-oxadiazol-3-yl)biphenyl-4-yl]methyl}-7-propylpyrazolo[1,5-a]pyrimidin-5(4H)-one (Optically Active Form, Retention Time: Short)] | 1.8
CCCc1c(Cc2ccc(-c3ccccc3-c3noc(=O)[nH]3)cc2F)c(=O)n([C@H]2CC[C@H](OC(C)C(C)(C)O)CC2)c2ncnn12 (single isomer, unassigned) [Example 248, 6-{[3-fluoro-2′-(5-oxo-4,5-dihydro-1,2,4-oxadiazol-3-yl)biphenyl-4-yl]methyl}-4-[trans-4-(2-hydroxy-1,2-dimethylpropoxy)cyclohexyl]-7-propyl[1,2,4]triazolo[1,5-a]pyrimidin-5(4H)-one] | 2.2
